In patent US7183067B2 (priority 2002, dated 2007):

Experiments:
concanavalin A (Con A) [1] = biological target: T1, concanavalin A (Con A) (Canavalia ensiformis, UniProt P02866); test: biochemical; type: binding
T1 construct: purchased SEIKAGAKU KOGYO

neutroavidin = biological target: T2, neutroavidin (Gallus gallus, UniProt P02701); test: Immobilization of ligand onto neutroavidin-immobilized SPR sensor chip; type: binding; settings: ligand solutions flown until no further increase
T2 construct: purchased PIERCE CA47105
T2 sequence (P02701 25-152): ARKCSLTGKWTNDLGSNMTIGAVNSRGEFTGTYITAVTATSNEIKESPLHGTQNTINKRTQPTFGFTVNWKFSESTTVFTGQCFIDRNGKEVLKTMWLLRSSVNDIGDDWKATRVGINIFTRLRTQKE
Protocol: The ligand-introduced chip was obtained by the following procedure. In the beginning, a sensor chip (manufactured by Japan Laser Electronics Co., Ltd.), prepared by depositing a gold thin film of 50 nm thick on a glass substrate of 13 mm×20 mm×0.7 mm, was placed in a UV ozone cleaner (product name: NL-UV253, Japan Laser Electronics Co., Ltd.) and was exposed to ultraviolet rays for 20 minutes so as to wash the surface of the sensor chip with ozone. Next, the sensor chip was immersed in a 4,4′-methanol dithiobutyrate solution (100 μM) in a Petri dish and gently shaken for 30 minutes at room temperature (product name: Bio Dancer, New Brunswick Scientific Co., Ltd.). 4-thiobutyric acid was immobilized onto the chip through a gold-sulfur bond. The chip was washed three times with ethanol. […] A surface plasmon resonant angle change then observed was monitored. […]
Next, 4.9 μM, 16.3 μM, and 49 μM 4-Mal solutions were flown onto (S) by 60 μL at a flow rate of 10 μL/min for immobilization; 0.49 μM and 4.9 μM 4-Glc solutions were flown onto (R) by 60 μL at a flow rate of 10 μL/min for immobilization. […] A resonant angle change quantity between a point of time when the resonant angle change had become constant and a point of time before the immobilization was defined as a immobilization quantity. […] In this sensorgram, the immobilization quantity of 4-Mal was 220 RU and that of 4-Gcl was 220 RU. […]

Pea Lectin (PSA) = biological target: T3, Pea Lectin (PSA) (Pisum sativum, UniProt P02867); test: SPR measurement of ligand-introduced chip with PSA; type: binding
T3 construct: purchased SEIKAGAKU KOGYO
T3 sequence (P02867 31-211 limits assumed): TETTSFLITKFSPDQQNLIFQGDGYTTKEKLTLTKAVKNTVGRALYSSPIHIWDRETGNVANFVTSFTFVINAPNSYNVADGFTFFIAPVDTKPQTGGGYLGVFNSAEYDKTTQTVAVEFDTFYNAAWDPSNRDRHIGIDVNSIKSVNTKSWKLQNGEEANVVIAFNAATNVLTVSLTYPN
T3 sequence (P02867 218-269 limits assumed): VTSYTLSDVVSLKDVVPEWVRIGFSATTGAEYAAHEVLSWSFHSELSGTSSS
Protocol: (§1) PBS solutions containing proteins of various concentrations were flown onto the ligand-introduced chip obtained in (5-1) by 60 μL at a flow rate of 20 μL/min so as to observe the binding and dissociating behavior of the ligand-introduced chip with each protein by an SPR measurement.
(§2) The following proteins were used. • BSA (SIGMA ALUBMUN, BOVINE) • Concanavalin A (SEIKAGAKU KOGYO) • Pea Lectin (SEIKAGAKU KOGYO) • Peanut Lectin (SEIKAGAKU KOGYO) • RCA120 (SEIKAGAKU KOGYO)
(§3) Moreover, Con A of various concentrations was acted on the ligand-introduced chip so as to conduct an SPR measurement on an interaction. Also, an SPR measurement was also conducted on an interaction with BSA and PSA so as to observe a resonant angle change.
(§4) Further, ligand-introduced chips were produced which includes 4-Mal and 4-Glc of the present invention and 2-Mal and 2-Glc serving as a comparative example immobilized thereon. Con A, BSA, PSA, RCA120, and PNA solutions of various concentrations were flown onto the ligand-introduced chips so as to observe a resonant angle change by an SPR measurement.

concanavalin A (Con A) [2] = biological target: T1, concanavalin A (Con A); test: Affinity chromatography on 4-Mal affinity column, SDS-PAGE of fractions: Con A; type: binding; settings: mixed solution of Con A, PSA and BSA in PBS; elution with PBS, glucose, NaOH
Protocol: Following a general producing method of an affinity column, an affinity column including the ligand 4-Mal, obtained in Example 4, immobilized thereto. As a column carrier, Hitrap NHS-activated Hp (column volume 1 mL; manufactured by Amersham Co., Ltd.) was used. The column carrier, including a gel matrix and N-hydroxysuccinimide serving as an active group immobilized thereon through a spacer ([…] NHS group per 1 mL gel), is suitable to immobilizing onto a carrier a compound having an amino group. FIG. 6 is a schematic diagram showing the steps for preparation of an affinity column. […]
Absorbance of the fractions collected by the affinity chromatography in (6-2) was measured at a wavelength of 280 nm using an ultraviolet spectrometer. […]
The fractions (1 mL) so collected were freeze-dried and then mixed with the ion exchanged water (100 μL) so as to dissolve the fractions again. […] A ready-made gel (ATTO PAGEL-Compact AE-6000 (containing SDS 12.5%)) was set in an electrophoretic cell filled with the electrophoresis buffer solution. […]
Specifically, 12.5% acrylamide gel (ATTO PAGEL-Compact AE-6000) was used to perform SDS-PAGE, and Coomassie brilliant blue was used for dyeing, the result of which is shown in FIG. 8. […] In the Mix-3 fraction, BSA and PSA bands disappeared and only Con A band was detected. […]

BSA = biological target: T4, BSA (Bos taurus, UniProt P02769); test: SPR measurement of ligand-introduced chip with BSA; type: binding, bovine
T4 construct: purchased SIGMA
Protocol: as §1, §2, §3, §4

[3] = 1.0 μM Con A, Mal ligand chip against Glc ligand chip (2-channel), PBS pH 7.4, 25° C.

O=C1N[C@H]2[C@H](CS[C@H]2CCCCC(=O)N(CCNC(=O)c2ccc(NC[C@H](O)[C@@H](O)[C@H](O[C@H]3O[C@H](CO)[C@@H](O)[C@H](O)[C@H]3O)[C@H](O)CO)cc2)CCNC(=O)c2ccc(NC[C@H](O)[C@@H](O)[C@H](O[C@H]3O[C@H](CO)[C@@H](O)[C@H](O)[C@H]3O)[C@H](O)CO)cc2)N1 [Compound 2-Mal, reference compound]
Kd (concanavalin A (Con A) [1]): 0.96 ± 0.05 µM
kd: dissociation velocity constant (concanavalin A (Con A) [1]; [3]): 1.4 ± 0.86 s^−1 × 10^−2
kon (concanavalin A (Con A) [1]; 1.0 μM Con A, Mal ligand chip against Glc ligand chip (2-channel), PBS pH 7.4, 25° C., read-out: ka: binding velocity constant): 15000 ± 8600 M⁻¹ s⁻¹

O=C(CCN(CCC(=O)NCCN(CCC(=O)Nc1cccc(NCC(O)C(O)C(OC2OC(CO)C(O)C(O)C2O)C(O)CO)c1)CCC(=O)Nc1cccc(NCC(O)C(O)C(OC2OC(CO)C(O)C(O)C2O)C(O)CO)c1)C(=O)CCCCC1SCC2NC(=O)NC21)NCCN(CCC(=O)Nc1cccc(NCC(O)C(O)C(OC2OC(CO)C(O)C(O)C2O)C(O)CO)c1)CCC(=O)Nc1cccc(NCC(O)C(O)C(OC2OC(CO)C(O)C(O)C2O)C(O)CO)c1 (stereo not shown) [Compound 4-Mal]
ligand immobilization quantity (resonant angle change) (neutroavidin): 220 RU
binding of Con A to ligand by SPR (concanavalin A (Con A) [1]): firmly binds
KD (kd/ka): dissociation constant (concanavalin A (Con A) [1]; [3]): 0.59 ± 0.06 µM
kd: dissociation velocity constant (concanavalin A (Con A) [1]; [3]): 0.72 ± 0.021 s^−1 × 10^−2
specific interaction with PSA by SPR (Pea Lectin (PSA)): do not specifically interact
retention of Con A on affinity column (concanavalin A (Con A) [2]): A majority of Con A was retained
specific interaction with BSA by SPR (BSA): do not specifically interact
